Test results published in patent US20160158189A1, “SENSITIZATION OF CANCER CELLS TO APOPTOSIS INDUCTION BY FLAVAGLINES AND 5-HYDROXY-FLAVONES” (DEUTSCHES KREBSFORSCHUNGSZENTRUM, priority 2013, published 2016).

What was measured:
melanoma cell line A375 = experiment: Apoptotic cell death by DNA fragmentation, A375; type: cell-based, human; details: 1 μM ABT-263, 48 h
Experimental: (§1) The human malignant cell lines used in this study are the T cell leukemic cell lines CEM, Molt-4 and Jurkat (J16), the HL cell line KM-H2, the cervix adenocarcinoma cell line HeLa, the melanoma cell line A375, the hepatocellular carcinoma cell line HepG2, the pancreatic carcinoma cell line MiaPaca, the breast cancer cell line MCF-7, the prostatic cancer cell line PC3 and the colon carcinoma cell line HCT116. All cells were cultured in RPMI 1640 or DMEM medium (GIBCO laboratories, Grand Island, USA), supplemented with 10% FCS, 100 Units/ml penicillin (GIBCO), 100 μg/m1 streptomycin (GIBCO) and 2 mM L-glutamine (GIBCO) at 37° C. and 5%. Wogonin (BIOTREND Chemicals AG, Wangen, Switzerland), apigenin, chrysin, luteolin and baicalein (Sigma, St. Louis, USA) were solved in dimethyl sulfoxide (DMSO; Roth, Karlsruhe, Germany) at a stock concentration of 50 mM. Cells were treated with different concentrations of different flavones or ABT-263 (Selleck Chemicals, Houston, USA) for 24 to 48 h. Apoptotic cell death was examined by analysis of DNA fragmentation as previously described 23 (Fas et al.,2006, Blood 108: 3700-6). Results are presented as % specific DNA fragmentation using the formula: (percentage of experimental apoptosis-percentage of spontaneous apoptosis)/(100-percentage of spontaneous apoptosis)×100.

[1] = tested on: colon carcinoma cell line HCT116; experiment: Apoptotic cell death by DNA fragmentation, HCT116; type: cell-based, human; details: 1 μM ABT-263, 48 h
Experimental: as §1

[2] = tested on: hepatocellular carcinoma cell line HepG2; experiment: Apoptotic cell death by DNA fragmentation, HepG2; type: cell-based, human; details: HepG3 (so in the source); 1 μM ABT-263, 48 h
Experimental: as §1

[3] = tested on: Hodgkin lymphoma (HL) cell line KM-H2; experiment: Apoptotic cell death by DNA fragmentation, KM-H2; type: cell-based, human; details: 1 μM ABT-263, 48 h
Experimental: as §1

[4] = tested on: pancreatic carcinoma cell line MiaPaca; experiment: Apoptotic cell death by DNA fragmentation, MiaPaca; type: cell-based, human; details: 1 μM ABT-263, 48 h
Experimental: as §1

Colo-357 cells = experiment: Apoptotic cell death by DNA fragmentation, Colo-357; type: cell-based; details: 1 μM ABT-263, 48 h
Experimental: (§2) Wogonin (BIOTREND Chemicals AG, Wangen, Switzerland), apigenin, chrysin, luteolin and baicalein (Sigma, St. Louis, USA) were solved in dimethyl sulfoxide (DMSO; Roth, Karlsruhe, Germany) at a stock concentration of 50 mM. Cells were treated with different concentrations of different flavones or ABT-263 (Selleck Chemicals, Houston, USA) for 24 to 48 h. Apoptotic cell death was examined by analysis of DNA fragmentation as previously described 23 (Fas et al.,2006, Blood 108: 3700-6). Results are presented as % specific DNA fragmentation using the formula: (percentage of experimental apoptosis-percentage of spontaneous apoptosis)/(100-percentage of spontaneous apoptosis)×100.

[5] = tested on: breast cancer cell line MCF-7; experiment: Apoptotic cell death by DNA fragmentation, MCF-7; type: cell-based, human; details: 1 μM ABT-263, 48 h
Experimental: as §1

[6] = tested on: prostatic cancer cell line PC3; experiment: Apoptotic cell death by DNA fragmentation, PC3; type: cell-based, human; details: 1 μM ABT-263, 48 h
Experimental: as §1

[7] = tested on: cervix adenocarcinoma cell line HeLa; experiment: Apoptotic cell death by DNA fragmentation, HeLa; type: cell-based, human; details: 1 μM ABT-263, 48 h
Experimental: as §1

[8] = tested on: ABT-263-resistant Jurkat (Jurkat-R); experiment: Apoptotic cell death by DNA fragmentation, ABT-263-resistant Jurkat; type: cell-based, human; details: Jurkat treated with increasing ABT-263 up to 10 μM, 3 months
Experimental: as §2

[9] = tested on: ABT-263-resistant CEM (CEM-R); experiment: Apoptotic cell death by DNA fragmentation, ABT-263-resistant CEM; type: cell-based, human; details: CEM treated with increasing ABT-263 up to 1 μM, 2 months
Experimental: as §2

[10] = tested on: proliferating normal peripheral blood T cells; experiment: Apoptotic cell death by DNA fragmentation, proliferating normal T cells; type: cell-based; details: human
Experimental: Normal T cells were isolated from peripheral blood of healthy donors and activated to proliferate as described in the Materials and Methods. The proliferating T cells were treated with different concentrations of ABT-263 in the absence or presence of wogonin as indicated. Apoptotic cell death was determined by DNA fragmentation. Results are presented as pooled data from four independent donors. (B) Proliferating normal T cells express higher levels of Mcl-1 and Bcl-2 than leukemic Jurkat and Molt-4 T cells. Total cell lysates of activated T cells from three healthy donors were compared with leukemic cells for the expression levels of Mcl-1, Bcl-2, Bcl-xL and Bcl-w. CDK6 is known to be over-expressed in many tumor cells and was used as a marker for malignant cells. Representative blots from two independent experiments are shown. […] Human platelets in 10% FCS were treated with different concentrations of ABT-263 in the absence or presence of wogonin as indicated. After 1 h treatment, apoptotic cell death was determine by staining with annexin V/FITC. Results are average of two independent assays.
Human peripheral blood T cells were prepared as described previously 23 and were more than 90% CD3 positive. For generation of proliferating T cells, freshly isolated T cells were cultured at 2×10^6 cells/ml and were activated with […] PHA overnight. Activated T cells were then washed three times and cultured for additional 5 days in the presence of 25 U/ml IL-2. Platelets were prepared as described in Vogler et al., 2011, Blood 117: 7145-54.
as §2, with “Results are presented as % specific DNA fragmentation using the formula: (percentage of experimental apoptosis-percentage of spontaneous apoptosis)/(100-percentage of spontaneous apoptosis)×100.” left out

Mcl-1 = experiment: Western blot analysis of Mcl-1 expression; type: cell-based, human; details: Jurkat and CEM with acquired ABT-263 resistance
Source text: (§3) For each sample, 1×10^7 cells were lysed as previously described. 23 Equal amounts of protein were separated on 5-13% SDS-PAGE depending on the molecular sizes of the proteins and blotted onto a nitrocellulose membrane (Amersham Biosciences, Little Chalfon, UK) as previously described. 23 The following antibodies were used: Bad, Bax, Bcl-xL, Bcl-w, XIAP from Cell Signaling Technology, Danvers, USA; Bcl-2 (sc-509) and Mcl-1 (sc-819) from Santa Cruz Biotechnology, Heidelberg, Germany; Tubulin and actin from Sigma, Saint Louis, USA.

CEM tumors = experiment: CEM xenograft in immunodeficient mice; type: in vivo; details: Rag2-/-/Il2rg-/- mice, s.c. CEM; ABT-263 50 mg/kg p.o. and/or wogonin 50 mg/kg i.p.
Experimental: Immunodeficient mice (Rag2−/−/II2rg−/−) were implanted subcutaneously in the dorsal flank region with CEM (5×10^7 cells). After the tumors reached to approximate 35 mm3, tumor size matched mice were treated with ABT-263 (50 mg/kg, once in each third or fourth day) in the presence or absence of 50 mg/kg wogonin. ABT-263 was formulated according to the protocol previously described 9 and administered p.o. Wogonin dissolved in DMSO was diluted in sunflower oil and administered i.p. For combination studies, ABT-263 was given 2 h before wogonin. The control group was treated in an analogous manner with the vehicle. The tumor size was measured with a micrometer caliper two to three times weekly and the tumor volume (V) was calculated by the formula V=(width2×length)/2. All protocols using and maintaining animals were approved by the German Animal Protection Authority (Office Regierungsprasidium Karlsruhe) in Karlsruhe.

human ALL RS4;11 = details: 100 mg/kg/day; cited from earlier work
Jurkat (J16) cells = experiment: Apoptotic cell death by DNA fragmentation, Jurkat; type: cell-based, human; details: Jurkat; ABT-263 with different concentrations of rocaglamide, 48 h
Experimental: as §1

[11] = tested on: HTLV-1-associated ATL cell line MT-2; experiment: Apoptotic cell death by DNA fragmentation, MT-2; type: cell-based, human; details: ABT-263 with different concentrations of rocaglamide, 48 h
Experimental: as §2
(§4) To investigate whether rocaglamide could enhance the toxicity of ABT-263 on leukemic cells, leukemic T cell line Jurkat and the HTLV-1-associated ATL cell line MT-2 were treated with indicated amounts of ABT-263 in the absence or presence of different concentration of rocaglamide for 48 h. Apoptotic cell death was determined by DNA fragmentation.

[12] = tested on: caspase-8, caspase-3, PARP; experiment: Western blot of caspases and PARP; type: cell-based, human; details: Jurkat (J16); combination with ABT-263, 24 h
Source text: as §3, §4

Compound	cell death (melanoma cell line A375)	cell death [1]	cell death [2]	cell death [3]	cell death [4]	cell death (Colo-357 cells)	cell death [5]	cell death [6]	cell death [7]	sensitivity to ABT-263 after long-term exposure [8]	sensitivity to ABT-263 after long-term exposure [9]	sensitivity of proliferating normal T cells to ABT-263 [10]	Mcl-1 expression after long-term ABT-263 exposure (Mcl-1)	tumor growth / tumor response (CEM tumors)	tumor response (human ALL RS4;11)	sensitization of ABT-263-induced apoptosis (Jurkat (J16) cells)	sensitization of ABT-263-induced apoptosis [11]	activities of caspase-8, caspase-3 and PARP cleavage [12]
CC1(C)CCC(c2ccc(Cl)cc2)=C(CN2CCN(c3ccc(C(=O)NS(=O)(=O)c4ccc(N[C@H](CCN5CCOCC5)CSc5ccccc5)c(S(=O)(=O)C(F)(F)F)c4)cc3)CC2)C1 [ABT-263, (R)-4-(4-((4′-chloro-4,4-dimethyl-3,4,5,6-tetrahydro-[1,1′-biphenyl]-2-yl)methyl)piperazin-1-yl)--N-((4-((4-morpholino-1-(phenylthio)butan-2-yl)amino)-3-((trifluoromethyl)sulfonyl)phenyl)sulfonyl)benzamide]	10-20%	10-20%	10-20%	less than 5%	less than 5%	less than 5%	less than 5%	less than 5%	less than 5%	resistant to ABT-263	resistant to ABT-263	higher resistance to ABT-263 compared to leukemic cells	elevated Mcl-1 expression	no significant inhibition of tumor growth	complete tumor response rate			
COc1ccc([C@@]23Oc4cc(OC)cc(OC)c4[C@]2(O)[C@H](O)[C@H](C(=O)N(C)C)[C@H]3c2ccccc2)cc1 [rocaglamide, (1R,2R,3S,3aR,8bS)-1,8b-dihydroxy-6,8-dimethoxy-3a-(4-methoxyphenyl)—N,N-dimethyl-3-phenyl-2,3-dihydro-1H-cyclopenta[b][1]benzofuran-2-carboxamide]																sensitized by rocaglamide in both leukemic cell lines in a dose-dependent manner	sensitized by rocaglamide in both leukemic cell lines in a dose-dependent manner	Significant enhancement of activities of caspase-8, caspase-3 and increase in PARP cleavage
